Laboratory results from ChEMBL document CHEMBL1136258, “Design, synthesis and antifungal activity of a novel water soluble prodrug of antifungal triazole” (Bioorg Med Chem Lett, 2003).
Values joined by “and” are separate entries in the source; they are usually repeats but may differ in a detail not shown here. Equal entries are not always repeated. Blank lines part the entries; values can stand above or below the compound they belong to.

What was measured:
Rattus norvegicus [1] = species: Rattus norvegicus; test: (§1) Half life in rat plasma; assay type: ADME
[2] = as §1; assay type: ADME; conditions: plasma
[3] = Half life in monkey plasma; assay type: ADME, cell-free; conditions: cercopithecidae
[4] = Solubility in water; assay type: physicochemical
[5] = Half life in human plasma; assay type: ADME, cell-free
[6] = Half life in monkey plasma; Not detected; assay type: ADME, cell-free; conditions: cercopithecidae
Rattus norvegicus [7] = test: Efficacy against Candida albicans CY1002 on day 14th after peroral administration in rat; assay type: functional; conditions: po
Rattus norvegicus [8] = test: Efficacy against Candida tropicalis CY5042 on day 14th after peroral administration in rat; assay type: functional; conditions: po
Rattus norvegicus [9] = test: Efficacy against Candida albicans CY3003 on day 14th after intravenous administration in rat; assay type: functional
Rattus norvegicus [10] = test: Efficacy against Candida tropicalis CY5042 on day 14th after intravenous administration in rat; assay type: functional
Rattus norvegicus [11] = test: Efficacy against […] CF924390 on day 14th after intravenous administration in rat; assay type: functional
[12] = Half life in human plasma; Not detected; assay type: ADME, cell-free
Rattus norvegicus [13] = test: Efficacy against […] CY1003 on day 14th after intravenous administration in rat; assay type: functional
Rattus norvegicus [14] = test: Efficacy against Candida albicans CY1002 on day 14th after intravenous administration in rat; assay type: functional
Rattus norvegicus [15] = test: Efficacy against […] CF924390 on day 14th after peroral administration in rat; assay type: functional
Rattus norvegicus [16] = test: Efficacy against […] CY1003 on day 14th after peroral administration in rat; assay type: functional; conditions: po
Rattus norvegicus [17] = species: Rattus norvegicus; test: Half life in rat plasma; Not detected; assay type: ADME
Rattus norvegicus [18] = test: Efficacy against Candida albicans CY3003 on day 14th after peroral administration in rat; assay type: functional; conditions: po

T1/2 (Rattus norvegicus [1]): 3 min | half-life [2]: < 2 min | T1/2 [3]: 3 min | half-life [3]: 2 min | solubility [4]: > 10000 µg/mL | half-life [5]: 2 min
SMILES: CNCC(=O)OCc1c(F)cccc1N(C)C(=O)OC(C)[n+]1cnn(C[C@](O)(c2cc(F)ccc2F)[C@@H](C)c2nc(-c3ccc(C#N)cc3)cs2)c1.[Cl-] (stereo partly drawn)

T1/2 (Rattus norvegicus [1]): 4 min | half-life [2]: < 2 min | T1/2 [3]: 2 min and 5 min | solubility [4]: > 10000 µg/mL | T1/2 [5]: 4 min | half-life [5]: 3 min
SMILES: CNCC(=O)OCc1ccc(Cl)cc1N(C)C(=O)OC(C)[n+]1cnn(C[C@](O)(c2cc(F)ccc2F)[C@@H](C)c2nc(-c3ccc(C#N)cc3)cs2)c1.[Cl-] (stereo partly drawn)

T1/2 (Rattus norvegicus [1]): < 2 min and 5 min | half-life [3]: 6 min | solubility [4]: > 10000 µg/mL | T1/2 [5]: 8 min | half-life [5]: 6 min
SMILES: CNCC(=O)OCc1cc(F)c(F)cc1N(C)C(=O)OC(C)[n+]1cnn(C[C@](O)(c2cc(F)ccc2F)[C@@H](C)c2nc(-c3ccc(C#N)cc3)cs2)c1.[Cl-] (stereo partly drawn)

solubility [4]: > 10000 µg/mL
SMILES: CNCC(=O)OCc1cc(F)ccc1N(C)C(=O)OC(C)[n+]1cnn(C[C@](O)(c2cc(F)ccc2F)[C@@H](C)c2nc(-c3ccc(C#N)cc3)cs2)c1.[Cl-] (stereo partly drawn)

half-life [2]: 1740 min | solubility [4]: < 1000 µg/mL
SMILES: C[C@@H](c1nc(-c2ccc(C#N)cc2)cs1)[C@](O)(Cn1c[n+](COC(=O)N(C)c2ccccc2)cn1)c1cc(F)ccc1F.[Cl-]

solubility [4]: < 1000 µg/mL
SMILES: CC(=O)OCCN(C)C(=O)OC[n+]1cnn(C[C@](O)(c2cc(F)ccc2F)[C@@H](C)c2nc(-c3ccc(C#N)cc3)cs2)c1.[I-]

solubility [4]: 1000 µg/mL
SMILES: CC(=O)OCc1ccccc1N(C)C(=O)OC[n+]1cnn(C[C@](O)(c2cc(F)ccc2F)[C@@H](C)c2nc(-c3ccc(C#N)cc3)cs2)c1.[Cl-]

T1/2 [6]: Not detected | half-life [2]: < 1 min | half-life [3]: < 1 min | T1/2 [12]: Not detected | solubility [4]: > 100000 µg/mL | half-life [5]: < 1 min | T1/2 (Rattus norvegicus [17]): Not detected
SMILES: CNCC(=O)OCc1cccnc1N(C)C(=O)OC(C)[n+]1cnn(C[C@](O)(c2cc(F)ccc2F)[C@@H](C)c2nc(-c3ccc(C#N)cc3)cs2)c1.[Cl-] (stereo partly drawn)
ED50 (Rattus norvegicus [7]): 4 µmol/kg | ED50 (Rattus norvegicus [8]): 0.8 µmol/kg | ED50 (Rattus norvegicus [9]): 1.5 µmol/kg | ED50 (Rattus norvegicus [10]): 0.9 µmol/kg | ED50 (Rattus norvegicus [11]): 6.8 µM/kg | ED50 (Rattus norvegicus [11]; Rattus norvegicus, iv, read-out: ED50): 6 µmol/kg | ED50 (Rattus norvegicus [13]): 12 µmol/kg | ED50 (Rattus norvegicus [14]): 4 µmol/kg | ED50 (Rattus norvegicus [15]): 8.9 µM/kg | ED50 (Rattus norvegicus [15]; Rattus norvegicus, po, read-out: ED50): 9.9 µmol/kg | ED50 (Rattus norvegicus [16]): 14 µmol/kg | ED50 (Rattus norvegicus [18]): 2.6 µmol/kg

solubility [4]: < 1000 µg/mL
SMILES: CC(=O)OC[C@@H]1CCCN1C(=O)OC[n+]1cnn(C[C@](O)(c2cc(F)ccc2F)[C@@H](C)c2nc(-c3ccc(C#N)cc3)cs2)c1.[I-]

solubility [4]: < 1000 µg/mL
SMILES: CC(=O)OCCCN(C)C(=O)OC[n+]1cnn(C[C@](O)(c2cc(F)ccc2F)[C@@H](C)c2nc(-c3ccc(C#N)cc3)cs2)c1.[I-]

SMILES: CCC(C)n1ncn(-c2ccc(N3CCN(c4ccc(OCC5COC(Cn6cncn6)(c6ccc(Cl)cc6Cl)O5)cc4)CC3)cc2)c1=O (stereo not drawn) [ITRACONAZOLE]
ED50 (Rattus norvegicus [7]): 4.7 µmol/kg | ED50 (Rattus norvegicus [8]): 1.7 µmol/kg | ED50 (Rattus norvegicus [15]): 7.2 µM/kg and 2.5 µM/kg | ED50 (Rattus norvegicus [16]): 8.9 µmol/kg | ED50 (Rattus norvegicus [18]): 1.7 µmol/kg
